What was measured:
Human δ-opioid (DOP) = molecular target: T1, Human δ-opioid (DOP) (Homo sapiens, UniProt P41143); experiment: Radioligand binding, human δ-opioid (DOP) membranes, FlashPlate, [3H]-Bremazocine; conditions: compound at 10 μM
T1 construct: purchased Perkin Elmer Biosignal
Summary of the method: (§1)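 Cloned human receptor membranes were coated onto FlashPlate wells and incubated with radioligand and compound (added from a 0.5 mM DMSO daughter plate) for 1 hour at room temperature in the dark. Scintillation counting gave percent inhibition, with DMSO defining total and reference ligand defining non-specific binding.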

Human κ-Opioid (KOP) = molecular target: T2, Human κ-Opioid (KOP) (Homo sapiens, UniProt P41145); experiment: Radioligand binding, human κ-opioid (KOP) membranes, filtration, [3H]-Diprenorphine; conditions: compound at 10 μM
T2 construct: purchased Perkin Elmer Biosignal
T2 sequence (P41145 whole entry): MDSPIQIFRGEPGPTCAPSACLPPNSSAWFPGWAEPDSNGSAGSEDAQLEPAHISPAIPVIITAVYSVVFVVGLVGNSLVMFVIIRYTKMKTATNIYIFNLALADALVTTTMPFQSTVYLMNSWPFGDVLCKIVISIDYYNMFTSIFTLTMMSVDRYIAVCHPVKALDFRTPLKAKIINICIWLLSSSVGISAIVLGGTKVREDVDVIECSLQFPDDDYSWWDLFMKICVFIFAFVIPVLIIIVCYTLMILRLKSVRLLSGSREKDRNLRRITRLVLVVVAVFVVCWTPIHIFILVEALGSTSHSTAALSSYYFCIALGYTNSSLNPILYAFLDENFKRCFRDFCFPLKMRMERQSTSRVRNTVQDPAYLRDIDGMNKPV
Summary of the method: (§2)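 Percent inhibition of radioligand binding measured on recombinant human membranes: NK1 with [125I]-Substance P, KOP with [3H]-Diprenorphine. Incubation 1 h at room temperature, then harvest onto 0.3% PEI-soaked filters, cold Tris-HCl pH 7.4 washes and scintillation counting; non-specific binding from reference ligand wells.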

Human Melanocortin (MC3) = molecular target: T3, Human Melanocortin (MC3) (Homo sapiens, UniProt P41968); experiment: Radioligand binding, human melanocortin MC3 membranes, FlashPlate, [125I]-NDP-αMSH; conditions: compound at 10 μM
T3 construct: purchased Perkin Elmer Biosignal
T3 sequence (P41968 whole entry): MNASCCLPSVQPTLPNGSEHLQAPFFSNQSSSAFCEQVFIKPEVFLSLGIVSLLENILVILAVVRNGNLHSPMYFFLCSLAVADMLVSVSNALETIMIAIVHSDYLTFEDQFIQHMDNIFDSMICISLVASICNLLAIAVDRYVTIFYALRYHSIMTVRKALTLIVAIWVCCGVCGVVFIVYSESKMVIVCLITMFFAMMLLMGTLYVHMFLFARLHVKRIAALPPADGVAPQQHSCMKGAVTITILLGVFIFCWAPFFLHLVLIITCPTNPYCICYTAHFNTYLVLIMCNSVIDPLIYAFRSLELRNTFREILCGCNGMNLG
Summary of the method: as §1

Human Melanocortin (MC4) = molecular target: T4, Human Melanocortin (MC4) (Homo sapiens, UniProt P32245); experiment: Radioligand binding, human melanocortin MC4 membranes, FlashPlate, [125I]-NDP-αMSH; conditions: compound at 10 μM
T4 construct: purchased Perkin Elmer Biosignal
T4 sequence (P32245 whole entry): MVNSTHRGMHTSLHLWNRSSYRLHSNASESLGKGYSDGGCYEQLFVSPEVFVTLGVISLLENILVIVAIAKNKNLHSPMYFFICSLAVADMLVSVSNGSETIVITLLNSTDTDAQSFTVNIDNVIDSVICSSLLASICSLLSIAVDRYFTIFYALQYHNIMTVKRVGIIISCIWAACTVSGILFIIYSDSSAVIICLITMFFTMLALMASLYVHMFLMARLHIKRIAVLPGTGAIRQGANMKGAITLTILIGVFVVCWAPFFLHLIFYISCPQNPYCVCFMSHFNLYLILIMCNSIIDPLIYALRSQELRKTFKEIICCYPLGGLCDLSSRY
Summary of the method: as §1

Human melanocortin (MC5) = molecular target: T5, Human melanocortin (MC5) (Homo sapiens, UniProt P33032); experiment: Radioligand binding, human melanocortin MC5 membranes, FlashPlate, [125I]-NDP-αMSH; conditions: compound at 10 μM
T5 construct: purchased Perkin Elmer Biosignal
T5 sequence (P33032 whole entry): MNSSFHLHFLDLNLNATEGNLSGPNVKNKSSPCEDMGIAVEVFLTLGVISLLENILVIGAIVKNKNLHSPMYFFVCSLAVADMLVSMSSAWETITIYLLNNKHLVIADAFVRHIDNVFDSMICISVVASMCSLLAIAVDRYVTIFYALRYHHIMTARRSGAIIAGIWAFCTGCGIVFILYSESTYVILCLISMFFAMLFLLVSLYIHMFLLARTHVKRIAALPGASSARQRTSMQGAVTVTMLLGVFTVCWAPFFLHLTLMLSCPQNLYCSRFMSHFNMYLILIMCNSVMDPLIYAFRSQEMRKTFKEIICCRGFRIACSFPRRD
Summary of the method: as §1

[1] = molecular target: T6, Human melanin-concentrating hormone (MCH1) (Homo sapiens, UniProt Q99705); experiment: Radioligand binding, human melanin-concentrating hormone MCH1 membranes, FlashPlate, [125I]-S36057; conditions: compound at 10 μM; for A6: inhibition of radioligand binding, human melanin-concentrating hormone (MCH1): [125I]-S36057
T6 construct: purchased Perkin Elmer Biosignal
T6 sequence (Q99705 whole entry): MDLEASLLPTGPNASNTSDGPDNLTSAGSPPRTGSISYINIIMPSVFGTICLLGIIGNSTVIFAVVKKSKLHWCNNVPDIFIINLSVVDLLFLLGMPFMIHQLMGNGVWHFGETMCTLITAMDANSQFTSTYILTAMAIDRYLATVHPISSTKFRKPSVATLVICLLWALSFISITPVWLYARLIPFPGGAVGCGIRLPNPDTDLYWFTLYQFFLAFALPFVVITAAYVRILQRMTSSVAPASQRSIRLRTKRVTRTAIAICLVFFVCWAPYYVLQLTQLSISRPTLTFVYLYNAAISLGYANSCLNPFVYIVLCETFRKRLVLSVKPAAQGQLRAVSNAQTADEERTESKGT
Summary of the method: as §1

Human μ-opioid (MOP) = molecular target: T7, Human μ-opioid (MOP) (Homo sapiens, UniProt P35372); experiment: Radioligand binding, human μ-opioid (MOP) membranes, FlashPlate, [3H]-Naloxone; conditions: compound at 10 μM
T7 construct: purchased Perkin Elmer Biosignal
T7 sequence (P35372 whole entry): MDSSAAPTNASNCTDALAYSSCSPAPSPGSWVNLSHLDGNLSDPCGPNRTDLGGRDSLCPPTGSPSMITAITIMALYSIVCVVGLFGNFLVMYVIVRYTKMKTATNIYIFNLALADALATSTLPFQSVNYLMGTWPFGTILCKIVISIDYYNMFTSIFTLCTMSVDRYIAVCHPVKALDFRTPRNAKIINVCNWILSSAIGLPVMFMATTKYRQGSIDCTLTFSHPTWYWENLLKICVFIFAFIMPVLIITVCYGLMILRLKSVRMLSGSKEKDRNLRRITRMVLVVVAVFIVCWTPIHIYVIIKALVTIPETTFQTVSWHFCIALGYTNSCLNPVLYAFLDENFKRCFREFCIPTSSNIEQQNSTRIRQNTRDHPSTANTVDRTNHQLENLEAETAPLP
Summary of the method: as §1

Human neurokinin (NK1) = molecular target: T8, Human neurokinin (NK1) (Homo sapiens, UniProt P25103); experiment: Radioligand binding, human neurokinin NK1 membranes, filtration, [125I]-Substance P; conditions: compound at 10 μM
T8 construct: purchased Perkin Elmer Biosignal
T8 sequence (P25103 whole entry): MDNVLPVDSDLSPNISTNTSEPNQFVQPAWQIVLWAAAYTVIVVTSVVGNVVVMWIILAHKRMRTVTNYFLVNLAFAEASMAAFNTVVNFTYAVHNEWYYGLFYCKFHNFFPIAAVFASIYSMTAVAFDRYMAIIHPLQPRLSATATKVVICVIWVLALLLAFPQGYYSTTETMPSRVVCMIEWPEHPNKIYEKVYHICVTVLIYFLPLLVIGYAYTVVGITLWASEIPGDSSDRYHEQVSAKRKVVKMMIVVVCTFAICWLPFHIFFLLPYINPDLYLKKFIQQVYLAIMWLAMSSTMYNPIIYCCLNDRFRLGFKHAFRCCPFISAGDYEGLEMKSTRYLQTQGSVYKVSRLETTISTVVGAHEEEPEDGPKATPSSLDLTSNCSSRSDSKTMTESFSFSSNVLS
Summary of the method: as §2

[2] = molecular target: T9, Human neuropeptide Y (NPY-Y1) (Homo sapiens, UniProt P25929); experiment: Radioligand binding, human neuropeptide Y NPY-Y1 membranes, FlashPlate, [125I]-PYY; conditions: compound at 10 μM
T9 construct: purchased Perkin Elmer Biosignal
T9 sequence (P25929 1-384): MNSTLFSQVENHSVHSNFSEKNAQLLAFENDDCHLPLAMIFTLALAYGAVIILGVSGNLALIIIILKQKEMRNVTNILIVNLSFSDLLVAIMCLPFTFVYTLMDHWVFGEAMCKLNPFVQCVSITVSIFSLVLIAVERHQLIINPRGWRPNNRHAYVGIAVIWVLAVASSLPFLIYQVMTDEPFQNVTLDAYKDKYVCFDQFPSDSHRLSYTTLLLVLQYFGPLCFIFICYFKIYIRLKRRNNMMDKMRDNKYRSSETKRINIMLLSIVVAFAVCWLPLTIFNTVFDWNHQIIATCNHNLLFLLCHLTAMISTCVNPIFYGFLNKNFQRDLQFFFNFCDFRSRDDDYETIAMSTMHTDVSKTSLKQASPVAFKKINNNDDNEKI
Summary of the method: as §1

Human opioid (ORL1) = molecular target: T10, Human opioid (ORL1) (Homo sapiens, UniProt P41146); experiment: Radioligand binding, human opioid ORL1 membranes, FlashPlate, [125I]-Nociceptin; conditions: compound at 10 μM
T10 construct: purchased Perkin Elmer Biosignal
T10 sequence (P41146 whole entry): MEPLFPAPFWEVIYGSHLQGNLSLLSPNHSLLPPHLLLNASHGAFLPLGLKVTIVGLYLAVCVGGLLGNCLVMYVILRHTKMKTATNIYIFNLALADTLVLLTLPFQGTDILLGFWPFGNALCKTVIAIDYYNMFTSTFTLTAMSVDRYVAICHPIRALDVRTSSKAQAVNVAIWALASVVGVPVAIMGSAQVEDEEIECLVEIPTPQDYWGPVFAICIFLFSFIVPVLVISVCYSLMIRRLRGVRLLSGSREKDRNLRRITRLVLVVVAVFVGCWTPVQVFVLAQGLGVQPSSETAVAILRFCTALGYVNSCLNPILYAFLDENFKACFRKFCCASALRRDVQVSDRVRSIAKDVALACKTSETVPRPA
Summary of the method: as §1

Mouse urotensin (mUR2) = molecular target: T11, Mouse urotensin (mUR2) (Mus musculus, UniProt Q8VIH9); experiment: Radioligand binding, mouse urotensin mUR2 membranes, FlashPlate, [125I]-Urotensin II; conditions: compound at 10 μM
T11 construct: purchased Perkin Elmer Biosignal
T11 sequence (Q8VIH9 1-385): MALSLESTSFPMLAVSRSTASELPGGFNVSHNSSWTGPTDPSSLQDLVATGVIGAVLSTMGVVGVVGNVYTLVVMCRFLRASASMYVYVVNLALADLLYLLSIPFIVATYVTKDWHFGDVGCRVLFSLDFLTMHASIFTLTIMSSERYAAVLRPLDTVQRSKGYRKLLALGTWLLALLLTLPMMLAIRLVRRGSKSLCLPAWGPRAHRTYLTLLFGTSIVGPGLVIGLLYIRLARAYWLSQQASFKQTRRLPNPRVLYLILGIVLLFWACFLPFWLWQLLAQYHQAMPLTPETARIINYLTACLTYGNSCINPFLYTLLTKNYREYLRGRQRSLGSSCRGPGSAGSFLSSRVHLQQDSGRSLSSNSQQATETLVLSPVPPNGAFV
Summary of the method: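 Cloned mouse urotensin (mUR2) receptor membranes from Perkin Elmer Biosignal were immobilized in FlashPlate microplates using a proprietary coating. Each well got 19.5 μl buffer, then 0.5 μl of DMSO, reference ligand, or compound. Adding 5 μl of [125I]-Urotensin II, diluted to 5× final concentration in binding buffer, started binding. Plates were sealed with TopSeal-A and incubated 1 hour at room temperature in the dark. Wells were counted for 30 seconds each on a TopCount after a 60-second delay, and percentage inhibition was calculated.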

T1 sequence (P41143 whole entry): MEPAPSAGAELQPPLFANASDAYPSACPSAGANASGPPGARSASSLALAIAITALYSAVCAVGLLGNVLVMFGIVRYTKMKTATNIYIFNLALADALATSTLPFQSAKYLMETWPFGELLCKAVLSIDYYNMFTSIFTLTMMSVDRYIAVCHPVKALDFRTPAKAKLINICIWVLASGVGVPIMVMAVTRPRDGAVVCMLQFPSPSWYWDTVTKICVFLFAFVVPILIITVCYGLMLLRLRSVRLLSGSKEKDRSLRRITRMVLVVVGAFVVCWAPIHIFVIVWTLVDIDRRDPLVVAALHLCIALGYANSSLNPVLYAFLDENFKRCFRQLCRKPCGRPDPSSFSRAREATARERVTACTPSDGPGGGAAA

Row | Compound | A1: inhibition of radioligand binding, human δ-opioid (DOP) (Human δ-opioid (DOP); [3H]-Bremazocine) | A2: inhibition of radioligand binding, human κ-opioid (KOP) (Human κ-Opioid (KOP); [3H]-Diprenorphine) | A3: inhibition of radioligand binding, human melanocortin (MC3) (Human Melanocortin (MC3); [125I]-NDP-αMSH) | A4: inhibition of radioligand binding, human melanocortin (MC4) (Human Melanocortin (MC4); [125I]-NDP-αMSH) | A5: inhibition of radioligand binding, human melanocortin (MC5) (Human melanocortin (MC5); [125I]-NDP-αMSH) | A8: inhibition of radioligand binding, human neurokinin (NK1) (Human neurokinin (NK1); [125I]-Substance P) | A9: inhibition of radioligand binding, human neuropeptide Y (NPY-Y1) ([2]; [125I]-PYY) | A10: inhibition of radioligand binding, human opioid (ORL1) (Human opioid (ORL1); [125I]-Nociceptin) | A11: inhibition of radioligand binding, mouse urotensin (mUR2) (Mouse urotensin (mUR2); [125I]-Urotensin II) | A6: inhibition of radioligand binding, human melanin-concentrating hormone (MCH1) [1] | A7: inhibition of radioligand binding, human μ-opioid (MOP) (Human μ-opioid (MOP); [3H]-Naloxone) | further results
1 | COC[C@H]1OC(OCc2ccc(Cl)cc2)[C@H](NC(=O)CNC(=N)N)[C@@H](OCc2ccc(-c3ccccc3)cc2)[C@@H]1O (stereo partly shown) [compound 28] |  |  |  |  |  |  |  |  |  |  |  | A1 radioligand binding inhibition (Human δ-opioid (DOP); human δ-opioid (DOP) membranes): − (“−” indicates less than 50% inhibition at 10 μM); A2 radioligand binding inhibition (Human κ-Opioid (KOP); human κ-opioid (KOP) membranes): − (“−” indicates less than 50% inhibition at 10 μM); A3 radioligand binding inhibition (Human Melanocortin (MC3); human melanocortin MC3 membranes): − (“−” indicates less than 50% inhibition at 10 μM); A4 radioligand binding inhibition (Human Melanocortin (MC4); human melanocortin MC4 membranes): + (“+” indicates greater than 50% inhibition at 10 μM); A5 radioligand binding inhibition (Human melanocortin (MC5); human melanocortin MC5 membranes): + (“+” indicates greater than 50% inhibition at 10 μM); A6 radioligand binding inhibition ([1]; human MCH1 membranes): + (“+” indicates greater than 50% inhibition at 10 μM); A7 radioligand binding inhibition (Human μ-opioid (MOP); human μ-opioid (MOP) membranes): − (“−” indicates less than 50% inhibition at 10 μM); A8 radioligand binding inhibition (Human neurokinin (NK1); human neurokinin NK1 membranes): + (“+” indicates greater than 50% inhibition at 10 μM); A9 radioligand binding inhibition ([2]; human NPY-Y1 membranes): − (“−” indicates less than 50% inhibition at 10 μM); A10 radioligand binding inhibition (Human opioid (ORL1); human ORL1 membranes): − (“−” indicates less than 50% inhibition at 10 μM); A11 radioligand binding inhibition (Mouse urotensin (mUR2); mouse urotensin mUR2 membranes): − (“−” indicates less than 50% inhibition at 10 μM)
2 | NCCCC(=O)NC1C(OCc2ccc(Cl)cc2)OC(COCc2ccc(Cl)cc2)C(O)C1OCc1ccc2ccccc2c1 (single isomer, unassigned) [compound 500] | − (“−” indicates less than 50% inhibition at 10 μM) | − (“−” indicates less than 50% inhibition at 10 μM) | + (“+” indicates greater than 50% inhibition at 10 μM) | + (“+” indicates greater than 50% inhibition at 10 μM) | + (“+” indicates greater than 50% inhibition at 10 μM) | + (“+” indicates greater than 50% inhibition at 10 μM) | − (“−” indicates less than 50% inhibition at 10 μM) | + (“+” indicates greater than 50% inhibition at 10 μM) | − (“−” indicates less than 50% inhibition at 10 μM) |  |  | A6: inhibition of radioligand binding, human melanin-concentrating hormone (MCH1) ([1]; 10 µM): + (“+” indicates greater than 50% inhibition at 10 μM); A7: inhibition of radioligand binding, human μ-opioid (MOP) (Human μ-opioid (MOP); [3H]-Naloxone, 10 µM): + (“+” indicates greater than 50% inhibition at 10 μM)
3 | COCC1OC(OCc2ccc(Cl)cc2)C(NC(=O)CCCN)C(OCc2ccc(-c3ccccc3)cc2)C1O (stereo not shown) [compound 207] |  |  |  |  |  |  |  |  |  |  |  | A1: inhibition of radioligand binding (Human δ-opioid (DOP); [3H]-Bremazocine, FlashPlate): − (“−” indicates less than 50% inhibition at 10 μM); A2: inhibition of radioligand binding (Human κ-Opioid (KOP); [3H]-Diprenorphine, filtration): − (“−” indicates less than 50% inhibition at 10 μM); A3: inhibition of radioligand binding (Human Melanocortin (MC3); [125I]-NDP-αMSH, FlashPlate): + (“+” indicates greater than 50% inhibition at 10 μM); A4: inhibition of radioligand binding (Human Melanocortin (MC4); [125I]-NDP-αMSH, FlashPlate): − (“−” indicates less than 50% inhibition at 10 μM); A5: inhibition of radioligand binding (Human melanocortin (MC5); [125I]-NDP-αMSH, FlashPlate): + (“+” indicates greater than 50% inhibition at 10 μM); A6: inhibition of radioligand binding ([1]; [125I]-S36057, FlashPlate): − (“−” indicates less than 50% inhibition at 10 μM); A7: inhibition of radioligand binding (Human μ-opioid (MOP); [3H]-Naloxone, FlashPlate): − (“−” indicates less than 50% inhibition at 10 μM); A8: inhibition of radioligand binding (Human neurokinin (NK1); [125I]-Substance P, filtration): + (“+” indicates greater than 50% inhibition at 10 μM); A9: inhibition of radioligand binding ([2]; [125I]-PYY, FlashPlate): − (“−” indicates less than 50% inhibition at 10 μM); A10: inhibition of radioligand binding (Human opioid (ORL1); [125I]-Nociceptin, FlashPlate): − (“−” indicates less than 50% inhibition at 10 μM); A11: inhibition of radioligand binding (Mouse urotensin (mUR2); [125I]-Urotensin II, FlashPlate): − (“−” indicates less than 50% inhibition at 10 μM)
4 | CSC1OC(COCc2ccc(Cl)cc2)C(O)C(OCc2ccc3ccccc3c2)C1NC(=O)CCCN (stereo not shown) [compound 310] | − (“−” indicates less than 50% inhibition at 10 μM) | − (“−” indicates less than 50% inhibition at 10 μM) | − (“−” indicates less than 50% inhibition at 10 μM) | − (“−” indicates less than 50% inhibition at 10 μM) | − (“−” indicates less than 50% inhibition at 10 μM) | + (“+” indicates greater than 50% inhibition at 10 μM) | − (“−” indicates less than 50% inhibition at 10 μM) | − (“−” indicates less than 50% inhibition at 10 μM) | − (“−” indicates less than 50% inhibition at 10 μM) | − (“−” indicates less than 50% inhibition at 10 μM) | − (“−” indicates less than 50% inhibition at 10 μM) | 
5 | N=C(N)NCCC(=O)N[C@H]1C(OCc2ccc(Cl)cc2)O[C@H](COCc2ccc(Cl)cc2)[C@@H](O)[C@@H]1OCc1ccc(-c2ccccc2)cc1 (stereo partly shown) [compound 537] | − (“−” indicates less than 50% inhibition at 10 μM) |  | + (“+” indicates greater than 50% inhibition at 10 μM) | + (“+” indicates greater than 50% inhibition at 10 μM) | + (“+” indicates greater than 50% inhibition at 10 μM) | + (“+” indicates greater than 50% inhibition at 10 μM) |  | + (“+” indicates greater than 50% inhibition at 10 μM) |  | + (“+” indicates greater than 50% inhibition at 10 μM) | − (“−” indicates less than 50% inhibition at 10 μM) | A2: inhibition of radioligand binding, human κ-opioid (KOP) (Human κ-Opioid (KOP); [3H]-Diprenorphine, 10 µM): − (“−” indicates less than 50% inhibition at 10 μM); A9: inhibition of radioligand binding, human neuropeptide Y (NPY-Y1) ([2]; [125I]-PYY, 10 µM): − (“−” indicates less than 50% inhibition at 10 μM); A11: inhibition of radioligand binding, mouse urotensin (mUR2) (Mouse urotensin (mUR2); [125I]-Urotensin II, 10 µM): − (“−” indicates less than 50% inhibition at 10 μM)

Reference: patent US20080009418A1, “Selective Inhibitors” (Alchemia LTD., priority 2004, published 2008)
